The test deals with L1210 leukemia ip in BDF1 mice, survival T/C. The test is described as follows: NCI In Vivo Anticancer Drug Screen. Data for tumor model L1210 Leukemia (intraperitoneal) in B6D2F1 (BDF1) mice. As to conditions: endpoint: mean survival time, higher = longer survival. The procedure, abridged: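 Mice bearing the transplanted tumor received compound or vehicle. Survival of the treated group was divided by that of the vehicle-treated control group to give the ratio.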

Setting [1] is: dose: 100.0 mg/kg/injection, schedule: Q04DX003 (ip), vehicle: saline with Tween-80.
Setting [2] is: dose: 200.0 mg/kg/injection, schedule: Q04DX003 (ip), vehicle: saline with Tween-80.
Setting [3] is: dose: 400.0 mg/kg/injection, schedule: Q04DX003 (ip), vehicle: saline with Tween-80.
Setting [4] is: dose: 100.0 mg/kg/injection, schedule: Q01DX009 (ip), vehicle: Klucel (hydroxypropylcellulose) (HPC).
Setting [5] is: dose: 100.0 mg/kg/injection, schedule: Q04DX003 (ip), vehicle: Klucel (hydroxypropylcellulose) (HPC).
[6] abbreviates: dose: 200.0 mg/kg/injection, schedule: Q01DX009 (ip), vehicle: Klucel (hydroxypropylcellulose) (HPC).
The mark [7] stands for this setting: dose: 200.0 mg/kg/injection, schedule: Q04DX003 (ip), vehicle: Klucel (hydroxypropylcellulose) (HPC).
Setting [8] is: dose: 100.0 mg/kg/injection, schedule: Q01DX001 (ip), vehicle: Klucel (hydroxypropylcellulose) (HPC).
Where [9] appears, read: dose: 200.0 mg/kg/injection, schedule: Q01DX001 (ip), vehicle: Klucel (hydroxypropylcellulose) (HPC).
Setting [10] is: dose: 400.0 mg/kg/injection, schedule: Q01DX001 (ip), vehicle: Klucel (hydroxypropylcellulose) (HPC).
Setting [11] is: dose: 100.0 mg/kg/injection, schedule: Q01DX001 (ip), vehicle: saline.
[12] abbreviates: dose: 200.0 mg/kg/injection, schedule: Q01DX001 (ip), vehicle: saline.
Setting [13] is: dose: 400.0 mg/kg/injection, schedule: Q01DX001 (ip), vehicle: saline.
Where [14] appears, read: dose: 100.0 mg/kg/injection, schedule: Q04DX003 (ip), vehicle: saline.
Setting [15] is: dose: 100.0 mg/kg/injection, schedule: Q01DX009 (ip), vehicle: carboxymethylcellulose (CMC).
[16] abbreviates: dose: 200.0 mg/kg/injection, schedule: Q01DX009 (ip), vehicle: carboxymethylcellulose (CMC).
The mark [17] stands for this setting: dose: 400.0 mg/kg/injection, schedule: Q01DX009 (ip), vehicle: carboxymethylcellulose (CMC).

Values joined by “and” are separate entries in the source; they are usually repeats but may differ in a detail not shown here. Identical values can stand only once. Toxic doses and inconclusive results are not listed.

On to `CCO/C=C/C(=O)NC(=O)OCC`, for which the T/C is 95 % of control (dose: 100.0 mg/kg/injection, schedule: Q01DX009 (ip), vehicle: saline with Tween-80); 97 % of control under setting [1]; 91 % of control (dose: 200.0 mg/kg/injection, schedule: Q01DX009 (ip), vehicle: saline with Tween-80); 100 % of control under setting [2]; 101 % of control (dose: 400.0 mg/kg/injection, schedule: Q01DX009 (ip), vehicle: saline with Tween-80); 94 % of control under setting [3].
`OCCCNc1nc2c(Cl)cc(Cl)cc2c2ccccc12`: the T/C was 104 % of control under setting [4]; 107 % of control under setting [5]; 94 % of control under setting [6]; 108 % of control under setting [7]; 95 % of control (dose: 400.0 mg/kg/injection, schedule: Q04DX003 (ip), vehicle: Klucel (hydroxypropylcellulose) (HPC)).
Take `COc1ccc(NC(=O)CCc2ccccc2)cc1`: the T/C reads like this: (dose: 12.5 mg/kg/injection, schedule: Q01DX001 (ip), vehicle: Klucel (hydroxypropylcellulose) (HPC)) 98 % of control; (dose: 25.0 mg/kg/injection, schedule: Q01DX001 (ip), vehicle: Klucel (hydroxypropylcellulose) (HPC)) 88 % of control; (dose: 50.0 mg/kg/injection, schedule: Q01DX001 (ip), vehicle: Klucel (hydroxypropylcellulose) (HPC)) 93 % of control; under setting [8], 86 % of control; under setting [9], 88 % of control; under setting [10], 91 % of control.
On to `CC(=O)CC(=O)NCCN1CCN(C(=O)CC(C)=O)CC1`, for which the T/C runs as follows: under setting [11], 93 % of control; under setting [12], 101 % of control; under setting [13], 98 % of control.
With `c1ccc2c(-c3c4ccccc4cc4ccccc34)c3ccccc3cc2c1`, the T/C was 91 % of control (dose: 100.0 mg/kg/injection, schedule: Q04DX002 (ip), vehicle: Klucel (hydroxypropylcellulose) (HPC)); 105 % of control (dose: 200.0 mg/kg/injection, schedule: Q04DX002 (ip), vehicle: Klucel (hydroxypropylcellulose) (HPC)); 91 % of control (dose: 400.0 mg/kg/injection, schedule: Q04DX002 (ip), vehicle: Klucel (hydroxypropylcellulose) (HPC)).
Take `CC(C)CCS(=O)(=O)O`: the T/C is, setting by setting: (dose: 50.0 mg/kg/injection, schedule: Q01DX001 (ip), vehicle: saline) 104 % of control; under setting [11], 104 % of control; under setting [12], 98 % of control; under setting [13], 102 % of control.
For the compound `COc1ccccc1NC(=O)NCCN1CCOCC1`, the T/C is, setting by setting: under setting [4], 103 % of control; under setting [6], 95 % of control.
For `CCC(CC)NC(CC)CO` (configuration not stated), the T/C reads like this: (dose: 75.0 mg/kg/injection, schedule: Q01DX001 (ip), vehicle: carboxymethylcellulose (CMC)) 101 % of control; (dose: 150.0 mg/kg/injection, schedule: Q01DX001 (ip), vehicle: carboxymethylcellulose (CMC)) 100 % of control.
`O=c1[nH]nc(CCc2ccccc2)o1`: the T/C was 97 % of control under setting [11]; 98 % of control under setting [14]; 92 % of control under setting [12]; 93 % of control (dose: 200.0 mg/kg/injection, schedule: Q04DX003 (ip), vehicle: saline); 95 % of control under setting [13]; 113 % of control (dose: 400.0 mg/kg/injection, schedule: Q04DX003 (ip), vehicle: saline).
As to `CCCCCCCCCCC(=O)N1CCOCC1`, the T/C is, setting by setting: (dose: 12.5 mg/kg/injection, schedule: Q04DX003 (ip), vehicle: saline with Tween-80) 98 % of control; (dose: 25.0 mg/kg/injection, schedule: Q04DX003 (ip), vehicle: saline with Tween-80) 95 % of control; (dose: 50.0 mg/kg/injection, schedule: Q04DX003 (ip), vehicle: saline with Tween-80) 101 % of control.
Turning to `N#CCCNC(=O)N(CCC#N)N=O`, the T/C by setting is: (dose: 3.12 mg/kg/injection, schedule: Q01DX Z (ip), vehicle: carboxymethylcellulose (CMC)) 100 % of control; (dose: 6.25 mg/kg/injection, schedule: Q01DX Z (ip), vehicle: carboxymethylcellulose (CMC)) 102 % of control; (dose: 12.5 mg/kg/injection, schedule: Q01DX Z (ip), vehicle: carboxymethylcellulose (CMC)) 103 % of control; (dose: 25.0 mg/kg/injection, schedule: Q01DX Z (ip), vehicle: carboxymethylcellulose (CMC)) 118 % of control; (dose: 75.0 mg/kg/injection, schedule: Q01DX Z (ip), vehicle: carboxymethylcellulose (CMC)) 153 % of control; (dose: 100.0 mg/kg/injection, schedule: Q01DX Z (ip), vehicle: carboxymethylcellulose (CMC)) 118 % of control. Also, the T/C was 155 % of control (dose: 150.0 mg/kg/injection, schedule: Q01DX Z (ip), vehicle: carboxymethylcellulose (CMC)) and 116 % of control (dose: 200.0 mg/kg/injection, schedule: Q01DX Z (ip), vehicle: carboxymethylcellulose (CMC)).
Consider `CC(C)(C)c1ccccc1OC(=O)Nc1ccc(F)cc1`, for which the T/C is 98 % of control (dose: 100.0 mg/kg/injection, schedule: Q01DX001 (ip), vehicle: carboxymethylcellulose (CMC)); 95 % of control and 97 % of control under setting [15]; 94 % of control and 96 % of control and 106 % of control (dose: 100.0 mg/kg/injection, schedule: Q04DX002 (ip), vehicle: carboxymethylcellulose (CMC)); 97 % of control (dose: 100.0 mg/kg/injection, schedule: Q04DX003 (ip), vehicle: carboxymethylcellulose (CMC)); 104 % of control (dose: 200.0 mg/kg/injection, schedule: Q01DX001 (ip), vehicle: carboxymethylcellulose (CMC)); 105 % of control under setting [16]. Besides, the T/C is 97 % of control and 98 % of control (2×) (dose: 200.0 mg/kg/injection, schedule: Q04DX002 (ip), vehicle: carboxymethylcellulose (CMC)); 97 % of control (dose: 200.0 mg/kg/injection, schedule: Q04DX003 (ip), vehicle: carboxymethylcellulose (CMC)); 101 % of control (dose: 400.0 mg/kg/injection, schedule: Q01DX001 (ip), vehicle: carboxymethylcellulose (CMC)); 103 % of control under setting [17]; 92 % of control and 94 % of control and 98 % of control (dose: 400.0 mg/kg/injection, schedule: Q04DX002 (ip), vehicle: carboxymethylcellulose (CMC)); 91 % of control (dose: 400.0 mg/kg/injection, schedule: Q04DX003 (ip), vehicle: carboxymethylcellulose (CMC)).
Consider `CSc1nc(C)cc(SC(=N)N)n1`, for which the T/C (dose: 25.0 mg/kg/injection, schedule: Q01DX009 (ip), vehicle: saline) was 105 % of control; the T/C (dose: 25.0 mg/kg/injection, schedule: Q04DX003 (ip), vehicle: saline) was 98 % of control; the T/C (dose: 50.0 mg/kg/injection, schedule: Q01DX009 (ip), vehicle: saline) is 102 % of control; the T/C (dose: 50.0 mg/kg/injection, schedule: Q04DX003 (ip), vehicle: saline) is 97 % of control; the T/C under setting [14] was 100 % of control and 101 % of control.
In the case of `Cc1c(C)c([N+](=O)[O-])c(/C=C/C(=O)O)c(C)c1[N+](=O)[O-]`, the T/C runs as follows: under setting [5], 97 % of control; under setting [7], 86 % of control.
Regarding `O=C(OCC(OC(=O)c1ccccc1)C1OCOC2COCOC21)c1ccccc1` (configuration not stated), the T/C reads like this: under setting [8], 101 % of control; under setting [9], 101 % of control; under setting [10], 97 % of control.
Take `O=C(O)CNS(=O)(=O)c1ccccc1`: the T/C under setting [15] is 97 % of control, the T/C under setting [16] is 101 % of control and the T/C under setting [17] is 89 % of control.
In the case of `CCc1c(C)[nH]c2c1C(=O)CCC2`, the T/C reads like this: (dose: 10.0 mg/kg/injection, schedule: Q01DX001 (ip), vehicle: saline) 98 % of control; (dose: 20.0 mg/kg/injection, schedule: Q01DX001 (ip), vehicle: saline) 100 % of control; (dose: 40.0 mg/kg/injection, schedule: Q01DX001 (ip), vehicle: saline) 105 % of control.
For the compound `CC(C)(C)C1CCCCC1O` (configuration not stated), the T/C under setting [11] is 92 % of control, the T/C under setting [12] was 97 % of control and the T/C under setting [13] was 92 % of control.
For `COC(=O)C1C2C=CC(CC2)C1(C)C(=O)OC` (configuration not stated), the T/C was 95 % of control under setting [1], 101 % of control under setting [2] and 90 % of control under setting [3].

The record behind these values is PubChem BioAssay AID248 (DTP/NCI, 2004).
